From patent US11801235B2, “Methods and compositions for delivery of biotin to mitochondria” (priority 2020, dated 2023)
Peptide text beside a SMILES is read from it. * marks the point of attachment. Biotin = O=C1N[C@H]2[C@H](CS[C@H]2CCCCC(=O)*)N1

Experiments:
[1] = test system: ARPE-19 human retinal pigment epithelial cells; assay: Mitochondrial localization: co-localization with cytochrome c oxidase subunit 4 (COX4); format: cell-based; conditions: ARPE-19 cells, 1 uM, 2 hours, serum-free DMEM/F12
Method: Cells were fixed with 4% PFA at RT for 10 min and then permeabilized with 0.1% Triton X-100 at RT for 10 min. Cells were blocked with 2% BSA (bovine serum albumin) at RT for 30 min, and then incubated with primary antibody for cytochrome c oxidase subunit 4 (COX4), a major protein complex expressed on the inner mitochondrial membrane. The rabbit polyclonal COX4 antibody (Invitrogen PAS-29992, Waltham, MA) was used at 1:500 dilution in 2% BSA at 4° C. overnight.

HK-2 cells [2] = assay: Cell viability (Alamar Blue) after 11 days of serum starvation; format: cell-based, human; conditions: 10 nM, vs serum-free control
Method: In the first model, HK-2 cells were cultured in 96-well plates in serum-free DMEM alone or in serum-free DMEM containing 10 nM of SPN11 or SPN12 for 11 days. Culture medium was replaced every 3 days.
(§1) Cell viability was measured using the Alamar Blue Cell Proliferation Assay (Bio-Rad), according to manufacturer's protocol. Alamar Blue uses resazurin to measure reducing power of living cells. The weakly fluorescent resazurin is reduced to the highly fluorescent resorufin when reduced by cellular metabolism. Briefly, alamar blue reagent (10 ul) was added to the culture medium and incubated for 1 h at 37° C. Fluorescence from resorufin (Ex/Em 530/590 nm) was detected using a microplate reader (SpectraMax iD3, Molecular Devices).

ARPE-19 cells [3] = assay: Cell number and viability after 30 days of serum deprivation; format: cell-based, human; conditions: 10 nM
Method: as §1
In the second model, ARPE-19 cells were grown in serum-free DMEM in the absence or presence of peptide-conjugated biotin molecules for 30 days. Serum-free media was supplemented with 10 nM of SPN12, SPN15 or SPN16 compounds (all at 10 nM) was replaced every 3 days. Culture medium was replaced every 3 days.

HK-2 cells [4] = assay: Cellular ATP in extreme starvation model (serum-free 5% DMEM in PBS, 3 days); format: cell-based, human; conditions: 10 nM
Method: ATP was measured using the ApoSENSOR ATP Bioluminescence Assay Kit (BioVision) according to manufacturer's protocol. This kit utilizes luciferase to catalyze the formation of light from ATP and luciferin. Briefly, cells were treated with 100 ul of Nuclear Releasing Buffer for 5 min at RT with gentle shaking. 10 ul of ATP Monitoring Enzyme was added to cell lysate, and luminescence was measured using a microplate reader (SpectraMax iD3, Molecular Device). ATP levels were normalized to the serum-free DMEM control group (arbitrarily set to 1.0).
The second model uses an extreme starvation model whereby HK-2 cells were cultured in 96-well plates in serum-free 5% DMEM in PBS (phosphate-buffered saline) for 3 days. Cells were treated with 10 nM free biotin or peptide-conjugated biotin molecules. All treatments were carried out with N=6 in each experiment.

[5] = test system: Human retinal pigment epithelial cells (ARPE-19); assay: Mitochondrial potential (TMRM/MitoView Green) after serum starvation; format: cell-based; conditions: ARPE-19 cells, 3 days of serum starvation, then 1 uM for 2 hours
Method: ARPE-19 cells were seeded in 35 mm glass plates at an initial density of 5×10^4 cells. […] Cells were then incubated in serum-free DMEM/F12 alone (control group) or DMEM/F12 containing 1 uM of SPN12 or SPN15 for 2 hours.
To determine mitochondrial potential, live cells were incubated with 5 nM tetramethylrhodamine methyl ester (TMRM, #70017, Biotium, Fremont, CA) in DMEM without phenol red. TMRM is a potential-dependent fluorescent dye (Ex/Em=548/573). TMRM accumulates in negatively charged polarized mitochondria and can be detected as red fluorescence. Total mitochondria were imaged with a mitochondrial potential-independent fluorescent dye (100 nM MitoView Green; Ex/Em=490/523; #70054, Biotium, Fremont CA). Hoechst 33342 (10 ug/ml, Novus Biologicals, Centennial, CO) was added to stain nuclei. Live cells were covered with phosphate buffer and imaged using the Nikon Eclipse Ti fluorescent microscopy using the 60×water objective.

HK-2 cells [6] = assay: In vitro scratch assay (scratch area); format: cell-based, human; conditions: 10 nM
Method: (§2) Certain exemplary peptide-conjugated biotin molecules can accelerate wound healing in cell cultures. The in vitro scratch assay is an easy and well-developed method to measure cell proliferation and migration over a “wound area” in vitro. This assay involves creating a “scratch” in a cell monolayer with a pipette tip and then examining the rate at which cells proliferate and migrate to close the scratch.
3×10^5 cells were plated per well in 6-well plates in DMEM at 37° C. in a humidified incubator with 5% CO2 for one day prior to the experiment. To mimic the microenvironment of wounds in vitro, serum-free medium was used in the scratch assay. On the day of the scratch assay, the medium was replaced with serum-free DMEM, and a line scraped across the cell monolayer using a p1000 pipette tip. Cells were washed to remove cell debris and replaced with DMEM alone (control), or DMEM containing 10 nM biotin or peptide-conjugated biotin molecules.
(§3) The scratch area was examined immediately (day 0) using a Nikon Eclipse Ti2 fluorescence microscope. Six different field were captured for each sample using 4×objective. The scratch area (cell-free zone) was calculated using ImageJ software, an open-source Java image processing program inspired by NIH Image (National Institute of Health). The scratch area was re-examined after 24 hours (day 1), and the area was normalized to the area determined on day 0 for the same sample. All results were calculated as change from no-treatment control and averaged for the six fields.

ARPE-19 cells [7] = assay: In vitro scratch assay (scratch area); format: cell-based, human
Source text: as §2, §3

[8] = test system: ARPE-19 human retinal pigment epithelial cell monolayers; assay: Cell proliferation at scratch edge (PCNA staining); format: cell-based; conditions: ARPE-19 cells, 10 nM, serum-free, 24 hours after scratch
Source text: (§4) Re-epithelialization of a wound area require proliferation of cells at the wound edge, which can be impaired in most wounds due to lack of blood flow to deliver nutrients and/or growth factor(s) that can be necessary for cell proliferation. Cell proliferation in the wound edge can be monitored by proliferating cell nuclear antigen (PCNA) staining. To mimic the microenvironment of wounds in vitro, serum-free medium was used for the scratch assay in cell cultures.
(§5) Proliferating cells were identified by immunostaining with antibody to proliferating cell nuclear antigen (PCNA) according to standard procedures as presented in IHC World. PCNA staining was performed using the same plate of cells after determination of scratch area. […] All cell nuclei stain blue with Hoechst, but nuclei of proliferating cells stain red. The number of proliferating cells per field was quantified by the intensity of red nuclear stain and normalized to intensity of blue nuclear stain (determined by Nikon NIS-Elements Imaging Software).

[9] = test system: HK-2 human renal epithelial cell monolayers; assay: Cell proliferation at scratch edge (PCNA staining); format: cell-based; conditions: HK-2 cells, 10 nM, serum-free, 24 hours after scratch
Source text: as §4, §5

HK-2 cells [10] = assay: Mitochondrial potential (TMRM) of cells at the scratch edge; format: cell-based, human; conditions: 10 nM, serum-free, 24 hours after scratch
Source text: Rapidly dividing cells can need ATP to support the synthesis of important building blocks. Tissue injury can cause rapid mitochondrial depolarization that compromises ATP production and/or results in cell death. The loss of ATP can further impair cell proliferation and/or tissue repair. Mitochondrial potential can be monitored in the cells at the edge of the scratch area using the cell-permeable potential-dependent dye TMRM (tetramethylrhodamine methyl ester). TMRM can accumulate in negatively charged polarized mitochondria and can be detected as red fluorescence. To mimic the microenvironment of wounds in vitro, serum-free medium was used in the scratch assay. […] HK-2 cells were then incubated with 5 nM TMRM in DMEM without phenol red and incubated for 30 min. Cells were then covered with live cell image buffer and imaged using Nikon Eclipse Ti2 fluorescent microscope (20× objective).

N=C(N)NCCC[C@H](NC(=O)[C@H](Cc1c[nH]c2ccccc12)NC(=O)CCCC[C@@H]1SC[C@@H]2NC(=O)N[C@@H]21)C(=O)N[C@@H](Cc1c[nH]c2ccccc12)C(=O)N[C@@H](CCCCNC(=O)CCCC[C@@H]1SC[C@@H]2NC(=O)N[C@@H]21)C(N)=O [SPN12, D-Biotin-L-Trp-L-Arg-L-Trp-L-Lys(biotinyl)-NH2] (Biotin-WRWK(Biotin)-NH2)
co-localization of biotin staining with COX4 staining (inner mitochondrial membrane), FIG. 6 [1]: co-localization | improvement of cell viability in the absence of serum, FIG. 7 (HK-2 cells [2]): 35% | cell viability after serum deprivation compared to control, FIG. 9 (ARPE-19 cells [3]; 30 days of serum deprivation): doubled | cell number after prolonged serum deprivation, microscopic images FIG. 8 (ARPE-19 cells [3]; 30 days serum-free): increased cell number | ATP content compared to free biotin under extreme starvation, FIG. 12 (HK-2 cells [4]): doubling | mitochondrial potential (TMRM) and filamentous mitochondrial network, FIG. 14 [5]: restore mitochondrial potential in all cells | scratch area after 24 hours, microscopic images FIG. 15 (HK-2 cells [6]; serum-free DMEM, 24 hours after mechanical scratch): almost completely closed | closure of the scratch area compared to control, FIG. 16 and FIG. 17 (HK-2 cells [6]; serum-free, 24 hours): significantly accelerated the closure of the scratch area | effectiveness in reducing scratch area compared to free biotin, FIG. 16 and FIG. 17 (HK-2 cells [6]; serum-free, 24 hours): twice as effective | wound healing (scratch closure), FIG. 18 (ARPE-19 cells [7]): accelerated wound healing | number of proliferating (PCNA-positive) cells at the edge of the scratch, images FIG. 22 [8]: increased the number of proliferating cells | number of proliferating cells normalized to all nuclei, FIG. 21 ([9]; compared to control or biotin): doubled | number of proliferating (PCNA-positive) cells at the edge of the scratch, images FIG. 20 ([9]; compared to free biotin): increased the number of proliferating cells | number of cells with good mitochondrial potential (TMRM) at scratch edge, images FIG. 24 (HK-2 cells [10]): increased the number of cells with good mitochondrial potential | mitochondrial potential (red fluorescence) normalized to nuclear number, FIG. 25 (HK-2 cells [10]; compared to control): significantly increased mitochondrial potential
